# Laboratory results: article PMC7280531, “A PROTAC peptide induces durable β-catenin degradation and suppresses Wnt-dependent intestinal cancer” (Cell Discovery, 2020)
# Where a SMILES comes first, the peptide text is derived from it. Bridges are numbered along the chain shown (N, C = ends). [ ]: non-standard residue; d: D form. The star is where a group is joined. R8 = C=CCCCCCC[C@@](C)(N)C(=O)O; S5 = C=CCCC[C@](C)(N)C(=O)O; Cbz = O=C(OCc1ccccc1)*; Ahx = NCCCCCC(=O)O
# Tests used:
# [1] = target: T1, β-catenin (Homo sapiens, UniProt P35222); assay: β-catenin immunoblotting / immunoprecipitation in HEK293T cells
# T1 sequence (P35222 1-781): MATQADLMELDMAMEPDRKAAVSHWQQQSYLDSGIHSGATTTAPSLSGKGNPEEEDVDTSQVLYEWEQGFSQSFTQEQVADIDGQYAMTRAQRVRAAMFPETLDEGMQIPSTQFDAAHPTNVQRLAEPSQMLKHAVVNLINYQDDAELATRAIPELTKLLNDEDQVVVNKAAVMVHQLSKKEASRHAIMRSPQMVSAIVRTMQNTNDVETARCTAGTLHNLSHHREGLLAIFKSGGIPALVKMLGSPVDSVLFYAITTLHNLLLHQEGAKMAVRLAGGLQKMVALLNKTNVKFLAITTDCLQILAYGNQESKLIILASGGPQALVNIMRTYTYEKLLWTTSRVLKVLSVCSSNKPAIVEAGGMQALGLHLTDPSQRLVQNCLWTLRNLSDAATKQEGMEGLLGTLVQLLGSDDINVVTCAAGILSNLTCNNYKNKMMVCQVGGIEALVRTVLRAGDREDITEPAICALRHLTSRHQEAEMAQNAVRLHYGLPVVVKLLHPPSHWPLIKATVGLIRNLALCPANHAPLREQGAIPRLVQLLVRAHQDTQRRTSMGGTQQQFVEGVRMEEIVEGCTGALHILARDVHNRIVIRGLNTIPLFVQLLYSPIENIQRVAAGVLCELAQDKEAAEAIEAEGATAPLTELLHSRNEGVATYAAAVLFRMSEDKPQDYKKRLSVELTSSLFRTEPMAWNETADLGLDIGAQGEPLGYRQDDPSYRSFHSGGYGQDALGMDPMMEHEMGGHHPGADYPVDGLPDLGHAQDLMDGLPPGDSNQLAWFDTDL
# Procedure: The relative band intensity was quantified with ImageJ and normalized to GAPDH.
# For immunoprecipitation, the cells were lysed in TNE lysis buffer (50 mM Tris-HCl, pH 8.0, 150 mM NaCl, 1% Nonidet P-40, and protease inhibitor cocktail). […] After 18,000×g centrifugation for 10 min, the lysates were immunoprecipitated with specific antibody and protein A-Sepharose beads and then washed the beads with TNE buffer for three times before immunoblotting.
# [2] = tested on: β-catenin; assay: β-catenin immunoblotting in colorectal cancer cells (HCT116, SW480, LoVo); type: cell-based; conditions: 50 μM xStAx-VHLL, 24 h
# Procedure: Relative
# β-catenin protein level was quantified with ImageJ and normalized to GAPDH. Data […]
# (b) LoVo cells were treated with 50 μM xStAx (xS), 50 μM
# immunoblotting. (c, d) LoVo (c) and SW480 (d) cells were treated with different
# [3] = tested on: APC^−/− organoids; assay: APC^−/− mouse intestinal organoid culture; type: cell-based; conditions: 10 μM MSAB or 50 μM xStAx-VHLL, 4 days
# [4] = target: T2, β-catenin (133-665) (Homo sapiens, UniProt P35222); assay: Isothermal titration calorimetry (ITC) of peptides with purified β-catenin
# T2 sequence (P35222 133-665): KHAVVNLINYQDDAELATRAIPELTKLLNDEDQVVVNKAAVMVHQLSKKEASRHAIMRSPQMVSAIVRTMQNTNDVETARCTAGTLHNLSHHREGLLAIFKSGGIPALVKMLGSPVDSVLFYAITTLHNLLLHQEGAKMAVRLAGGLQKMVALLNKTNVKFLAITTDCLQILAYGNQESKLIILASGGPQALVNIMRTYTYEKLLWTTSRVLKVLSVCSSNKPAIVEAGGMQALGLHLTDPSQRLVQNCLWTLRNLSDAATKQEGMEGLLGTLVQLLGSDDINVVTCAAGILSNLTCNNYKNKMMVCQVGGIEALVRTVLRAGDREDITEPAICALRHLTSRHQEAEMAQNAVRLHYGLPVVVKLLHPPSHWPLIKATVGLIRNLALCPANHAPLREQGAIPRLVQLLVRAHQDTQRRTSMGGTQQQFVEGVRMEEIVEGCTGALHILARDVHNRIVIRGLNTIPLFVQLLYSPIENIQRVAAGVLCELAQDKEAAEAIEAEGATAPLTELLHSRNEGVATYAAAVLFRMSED
# Procedure: The binding ability of the peptides with purified
# β-catenin protein in vitro.
# (a) Isothermal titration calorimetry (ITC) analysis to measure the interaction between
# Biotinylated peptides were incubated with streptavidin beads and then employed to
# The input β-catenin protein level
# was stained with Coomassie brilliant blue. The pulled down β-catenin was
# immunoblotted with anti-His antibody, and relative band intensity was quantified.
# [5] = cited from earlier work
# Excerpt: Peptide stapling chemistry developed by Verdine and coworkers, takes advantage of ruthenium-catalyzed metathesis to crosslink the side chains of paired anchoring residues at suitable positions, and has been successfully applied to design various peptide inhibitors with improved proteolytic stability, membrane permeability, and thus biological activity[11],[12]. Modeled after the same Axin-derived peptide motif, we and Verdine la ... || There is more space for the improvement of the working efficacy of xStAx-VHLL. The VHL peptide ligand inserted in this study consists of natural amino acids, which could be degraded once the PROTAC peptide enters the cell. Non-natural residues substitution instead of original ones, such as reported hydroxyproline to replace regular proline[31],[32], could be an effective approach to enhance the proteolytic resistance of PROTAC. It was previously reported that peptide double-stapling at both N-terminals and C-terminals rather than single stapling conferred striking protease resistance upon the ...
smiles,measurement,setting,value
"CC(C)C[C@@H](C=O)NC(=O)[C@H](CC(C)C)NC(=O)[C@H](CC(C)C)NC(=O)OCc1ccccc1 [MG132, reference compound] (Cbz-Leu-Leu-Leu-aldehyde)",effect of proteasome inhibitor on xStAx-VHLL-induced β-catenin degradation,"[1]; peptides 70 μM and MG132 10 μM, 16 h",blocked β-catenin degradation
"COC(=O)c1cccc(NS(=O)(=O)c2ccc(C)cc2)c1 [MSAB, reference compound]","β-catenin protein level, MSAB versus xStAx-VHLL","[2]; HCT116 and SW480, 10 μM MSAB",decreased β-catenin protein to a comparable level
same,"β-catenin protein level, MSAB versus xStAx-VHLL","[2]; LoVo, 10 μM MSAB",had no effect
same,"APC^−/− organoid survival, MSAB versus xStAx-VHLL",[3],minimal effect
same,"β-catenin protein level, MSAB versus xStAx-VHLL","[1]; 10 μM MSAB, 50 μM xStAx-VHLL (legend: 70 μM, Wnt3a CM), 24 h",decreased β-catenin protein to a comparable level
same,β-catenin level after wash-out of the drug,"[1]; MSAB 10 μM or xStAx-VHLL 70 μM 24 h, then fresh medium 24 or 48 h",restored after 24 h
"CC[C@H](C)[C@@H]1NC(=O)[C@](C)(NC(=O)[C@H](CCC(N)=O)NC(=O)[C@@H]2CCCN2C(C)=O)CCCCCCC=CCCC[C@@](C)(C(=O)N[C@@H](CCCNC(=N)N)C(=O)N[C@H](C(=O)N[C@@H](CCSC)C(=O)N[C@@H](CCCCN)C(N)=O)C(C)C)NC(=O)[C@H](C(C)C)NC(=O)[C@H](Cc2c[nH]cn2)NC(=O)[C@H](CCC(N)=O)NC(=O)[C@H](CC(=O)O)NC(=O)[C@H](CC(C)C)NC1=O [SAHPA1, reference compound] (Ac-PQ[R8]ILDQHV[S5]RVMK-NH2; staple 3-10)",Kd,[4],38 µM
same,ability to penetrate the cell membrane,[5],capable of penetrating the cell membrane
CC[C@H](C)[C@@H]1NC(=O)[C@](C)(NC(=O)[C@H](CCC(N)=O)NC(=O)[C@@H]2CCCN2C(C)=O)CCCCCCC=CCCC[C@@](C)(C(=O)N[C@@H](CCCNC(=N)N)C(=O)N[C@H](C(=O)N[C@@H](CCSC)C(=O)N[C@@H](CCCCN)C(=O)NCCCCCC(=O)N[C@@H](C)C(=O)N[C@@H](CC(C)C)C(=O)N[C@@H](C)C(=O)N2CCC[C@H]2C(=O)N[C@@H](Cc2ccc(O)cc2)C(=O)N[C@H](C(=O)N2CCC[C@H]2C(N)=O)[C@@H](C)CC)C(C)C)NC(=O)[C@H](C(C)C)NC(=O)[C@H](Cc2c[nH]cn2)NC(=O)[C@H](CCC(N)=O)NC(=O)[C@H](CC(=O)O)NC(=O)[C@H](CC(C)C)NC1=O [SAHPA1-VHLL] (Ac-PQ[R8]ILDQHV[S5]RVMK[Ahx]ALAPYIP-NH2; staple 3-10),Kd,[4],55 µM
"Cc1ncsc1-c1ccc(CNC(=O)[C@@H]2C[C@@H](O)CN2C(=O)[C@@H](NC(=O)C2(C#N)CC2)C(C)(C)C)cc1 [VH-298, reference compound]",effect of VHL ligase inhibitor on xStAx-VHLL-mediated β-catenin degradation,"[2]; LoVo, 100 μM inhibitor",blocked it
same,effect of VHL ligase inhibitor on xStAx-VHLL-mediated β-catenin degradation,"[1]; Wnt3a CM, 70 μM xStAx-VHLL, 100 μM inhibitor, 24 h",blocked it
CC[C@H](C)[C@@H]1NC(=O)[C@@](C)(NC(=O)[C@H](CCCNC(=N)N)NC(=O)[C@@H]2CCCN2C(=O)[C@H](Cc2c[nH]c3ccccc23)NC(=O)[C@H](CCCNC(=N)N)NC(=O)[C@H](CCCNC(=N)N)NC(C)=O)CCCC=CCCC[C@@](C)(C(=O)N[C@@H](Cc2c[nH]cn2)C(=O)N[C@H](C(=O)N[C@@H](CCCNC(=N)N)C(=O)N[C@@H](CCCNC(=N)N)C(=O)N[C@H](C(=O)N[C@@H](Cc2c[nH]c3ccccc23)C(=O)N[C@@H](CCCNC(=N)N)C(N)=O)C(C)C)C(C)C)NC(=O)[C@H](CC(=O)O)NC(=O)[C@H](CC(C)C)NC1=O [xStAx] (Ac-RRWPR[S5]ILD[S5]HVRRVWR-NH2; staple 6-10),ability to penetrate the cell membrane,[5],capable of penetrating the cell membrane
